Laboratory results reported in BindingDB's records for doi:10.1021/ml1002508 (2011).

Assay: Agonist activity at androgen receptor expressed in mouse C2C12 cells assessed as osteoblast differentiation after 5 days

Cc1c(N[C@@H](c2nnc(-c3ccc(C#N)cc3)o2)[C@H](C)O)ccc(C#N)c1Cl [2-chloro-4-((1R,2S)-1-(5-(4-cyanophenyl)-1,3,4-oxadiazol-2-yl)-2-hydroxypropylamino)-3-methylbenzonitrile]
EC50: 0.1 nM
